According to patent publication US20070254894A1, “Novel small molecules with selective cytotoxicity against human microvascular endothelial cell proliferation” (priority 2006, published 2007):
Where a name gives a salt, the structure may show the parent alone. Read-outs that look alike come from different tables or passages of the source.

How the values were obtained:
[1] = test system: HMVEC cells stimulated with VEGF 165; assay: VEGF driven HMVEC proliferation screen; type: cell-based
Method: (§1) HMVEC cells were plated on collagen-coated plates at 2500 cells/well for 24 hours. Various concentrations of test compounds were then added to duplicate plates. […] Anti-FGF antibody (final concentration of 5 μg/mL) was added to four control wells as a standard inhibitor. At the same time the compounds were added, a T-zero plate was generated (Alamar blue was added to a plate and read after three hours). The plates with the compounds were incubated for one hour at 37° C., 5% carbon dioxide. At this point, b-FGF was added (final concentration of 2.5 ng/mL). Tween-20 (10 μL) was added to four additional control wells to represent total death and the plates were returned to the carbon dioxide incubator for 6 days.
The assay was run identically using VEGF in place of b-FGF. The final concentration of VEGF 165, in this mode, was 10 ng/mL. The control inhibitor was anti-VEGF antibody (final concentration of […]). All other conditions were the same.

in vitro = settings: human, primary human dermal fibroblasts, D. Fibroblast LC50, 6 days, Alamar blue
Method: (§2) In parallel with the VEGF and FGF screens, a normal cell toxicity assay was run. Primary Human Dermal Fibroblasts (Clonetics) were plated at 5000 cells/well. After 24 hours various concentrations of test compounds, were added in duplicate plates and 10% Tween-20 was added to four control wells to represent total death. At the same time a T-zero plate was generated. The plates were returned to the carbon dioxide incubator and on day 6 Alamar blue was added and the plates read after 3 hours.
(§3) Using a T-zero plate allows the observation of compounds that cause the cells to become static as well as inhibit growth.

[2] = test system: HMVEC cells stimulated with b-FGF; assay: b-FGF driven HMVEC proliferation screen; type: cell-based
Method: as §1

[3] = test system: Primary Human Dermal Fibroblasts; assay: in vitro; settings: read-out: D. Fibroblast LC50, 6 days, Alamar blue
Method: as §2, §3

[4] = Homo sapiens, HMVEC, 144 h, VEGF 165 10 ng/mL, 6 days, Alamar blue, read-out: VEGF LC50
[5] = Homo sapiens, HMVEC, 144 h, b-FGF 2.5 ng/mL, 6 days, Alamar blue, read-out: b-FGF LC50
[6] = VEGF 165 10 ng/mL, 6 days, Alamar blue, read-out: VEGF LC50
[7] = b-FGF 2.5 ng/mL, 6 days, Alamar blue, read-out: b-FGF LC50

| Structure (SMILES) | CC50 [1, 4] | CC50 at 6 days (in vitro) | CC50 [2, 5] | other results |
| --- | --- | --- | --- | --- |
| CN1CCC[C@H]1C(=O)Nc1ccc(N2CCOCC2)c2cccnc12 [Compound 68] | 430 nM | > 10000 nM | 820 nM |  |
| Cc1cc(NS(=O)(=O)c2ccccn2)c2ncccc2c1C [Compound 75, pyridine-2-sulfonic acid (5,6-dimethyl-quinolin-8-yl)-amide] | 190 nM | > 10000 nM | 160 nM |  |
| O=C(Nc1cccc2cccnc12)c1ccccn1 [Compound 93, pyridine-2-carboxylic acid quinolin-8-ylamide hydrochloride salt] | 72 nM | > 10000 nM | 71 nM |  |
| CN1CCCC[C@H]1C(=O)Nc1cccc2cccnc12 [Compound 69] | 3100 nM | > 10000 nM | 2600 nM |  |
| O=C(Nc1cccc2cccnc12)[C@@H]1CCCN1CC1CC1 [Compound 61] | 1500 nM | > 10000 nM | 1500 nM |  |
| O=C(CN1CCCC1)Nc1cccc2cccnc12 [Compound 56] | 1300 nM | > 10000 nM | 1400 nM |  |
| O=C(Nc1cccc2cccnc12)[C@@H]1CCCN1 [Compound 57, (S)-pyrrolidine-2-carboxylic acid quinolin-8-ylamide] | 1300 nM | > 10000 nM | 1200 nM |  |
| Cc1cc(NC(=O)[C@@H]2CCCN2C)c2ncccc2c1 [Compound 67] | 230 nM | > 10000 nM | 350 nM |  |
| O=C(Nc1cccc2nccnc12)c1ccccn1 [Compound 94] | 280 nM | > 10000 nM | 290 nM |  |
| COc1cc(NC(=O)c2cc(Cl)ccn2)c2ncccc2c1 [Compound 52] | 93 nM | > 10000 nM | 85 nM |  |
| COc1cc(NC(=O)c2cc(N3CCOCC3)ccn2)c2ncccc2c1 [Compound 53] | 30 nM | > 10000 nM | 28 nM |  |
| CC(C)CN1CCC[C@H]1C(=O)Nc1cccc2cccnc12 [Compound 63] | 5500 nM | > 10000 nM | 4400 nM |  |
| C[C@@H](C(=O)Nc1cccc2cccnc12)N(C)C [Compound 60] | 730 nM | > 10000 nM | 520 nM |  |
| O=C(Nc1cc(Cl)c(Cl)c2cccnc12)c1ccccn1 [Compound 97] | 250 nM | > 10000 nM | 250 nM |  |
| O=C(Nc1cccc2cccnc12)c1cc(N2CCC(N3CCCC3)CC2)ccn1 [Compound 103] | 33 nM | 4300 nM | 38 nM |  |
| Cc1cc(NC(=O)c2ccccn2)c2ncccc2c1C [Compound 95] | 150 nM | > 10000 nM | 170 nM |  |
| CN(C)CC(=O)Nc1cccc2cccnc12 [Compound 55, 2-dimethylamino-N-quinolin-8-yl-acetamide] | 630 nM | > 10000 nM | 590 nM |  |
| O=S(=O)(Nc1cccc2nccnc12)c1ccccn1 [Compound 78] | 2400 nM | > 10000 nM | 4200 nM |  |
| CN1CCCN(c2ccnc(C(=O)Nc3cccc4cccnc34)c2)CC1 [Compound 102] | 24 nM | > 10000 nM | 31 nM |  |
| COc1cc(NC(=O)[C@@H]2CCCN2C)c2ncccc2c1 [Compound 66] | 240 nM | > 10000 nM | 240 nM |  |
| O=C(Nc1cccc2cccnc12)c1cc(Cl)ccn1 [Compound 22, 4-chloropyridine-2-carboxylic acid quinolin-8-ylamide] | 100 nM | > 10000 nM | 130 nM |  |
| CCCN1CCC[C@H]1C(=O)Nc1cccc2cccnc12 [Compound 62] | 1300 nM | > 10000 nM | 1200 nM |  |

| Structure (SMILES) | CC50 [1, 4] | CC50 at 6 days (in vitro) | CC50 [2, 5] | other results |
| --- | --- | --- | --- | --- |
| CN1CCC[C@H]1C(=O)Nc1cccc2cccnc12 [Compound 107] |  | > 10000 nM |  | CC50 [1, 6]: 460 nM; CC50 [2, 7]: 410 nM |
| COc1cc(NC(=O)c2cc(N3CCN(C)CC3)ccn2)c2ncccc2c1 [Compound 105] |  | 9600 nM |  | CC50 [1, 6]: 91 nM; CC50 [2, 7]: 120 nM |
| CC(C)N1CCC[C@H]1C(=O)Nc1cccc2cccnc12 [Compound 64] | 6400 nM | > 10000 nM | 5200 nM |  |
| CCN(C)c1ccccc1NC(=O)c1ccccn1 [Compound 106] | 1500 nM | > 10000 nM | 1200 nM |  |
| O=C(Nc1cccc2cccnc12)c1cc(Sc2ccccc2)ccn1 [Compound 31, 4-phenylsulfanylpyridine-2-carboxylic acid quinolin-8-ylamide] | 170 nM | > 10000 nM | 150 nM |  |
| CN(C)[C@@H](Cc1ccccc1)C(=O)Nc1cccc2cccnc12 [Compound 59] | 1200 nM | > 10000 nM | 1100 nM |  |
| Cc1ccc(NC(=O)c2ccccn2)c2ncccc12 [Compound 96] | 140 nM | > 10000 nM | 100 nM |  |
| CN1CCC[C@@H]1C(=O)Nc1cccc2cccnc12 [Compound 65] | 230 nM | > 10000 nM | 290 nM |  |
| Cc1cccnc1C(=O)Nc1ccc(N2CCOCC2)c2cccnc12 [Compound 50] | 110 nM | > 10000 nM | 74 nM |  |
| CN1CCN(c2ccc(NS(=O)(=O)c3ccccn3)c3ncccc23)CC1 [Compound 110] | 1500 nM | > 10000 nM | 1300 nM |  |
| O=C(Nc1cccc2ccnnc12)c1ccccn1 [Compound 76] | 3500 nM | > 10000 nM | 3300 nM |  |
| O=C(Nc1cccc2cccnc12)c1cc(Oc2ccccc2)ccn1 [Compound 32, 4-phenoxypyridine-2-carboxylic acid quinolin-8-ylamide] | 1100 nM | > 10000 nM | 1800 nM |  |
| CN1CCCC[C@@H]1C(=O)Nc1cccc2cccnc12 [Compound 70] | 3900 nM | > 10000 nM | 2800 nM |  |
| Cc1cc(NC(=O)c2ccccn2)c2ncccc2c1Br [Compound 16, pyridine-2-carboxylic acid (5-bromo-6-methyl-quinolin-8-yl)-amide] | 380 nM | > 10000 nM | 380 nM |  |
| O=S(=O)(Nc1cc(Cl)c(Cl)c2cccnc12)c1ccccn1 [Compound 109] | 450 nM | > 10000 nM | 340 nM |  |
| O=C(Nc1cccc2cccnc12)c1ncccc1OCc1ccccc1 [Compound 47, 3-benzyloxypyridine-2-carboxylic acid quinolin-8-ylamide] | 280 nM | > 10000 nM | 400 nM |  |
| CN1CCC[C@H]1C(=O)Nc1cccc2cccnc12 [Compound 108, (S)-1-methyl-pyrrolidine-2-carboxylic acid quinolin-8-ylamide L-tartrate salt] |  |  |  | CC50 ([1]; VEGF 165 10 ng/mL, 6 days, Alamar blue, L-tartrate salt, read-out: VEGF LC50): 290 nM; CC50 [3]: > 10000 nM; CC50 ([2]; b-FGF 2.5 ng/mL, 6 days, Alamar blue, L-tartrate salt, read-out: b-FGF LC50): 220 nM |
| O=C(Nc1cccc2cc(Cl)cnc12)c1ccccn1 [Compound 7] |  |  |  | CC50 [1]: 310 nM; CC50 [3]: > 10000 nM; CC50 [2]: 320 nM |
| COc1cc(NS(=O)(=O)c2ccccn2)c2ncccc2c1 [Compound 72] |  |  |  | CC50 [1]: 170 nM; CC50 [3]: > 10000 nM; CC50 [2]: 240 nM |
| O=C(Nc1ccc(N2CCOCC2)c2cccnc12)c1cc(Cl)ccn1 [Compound 51] | 220 nM | > 10000 nM | 230 nM |  |
| CN1CCN(c2ccnc(C(=O)Nc3cccc4cccnc34)c2)CC1 [Compound 100, 4-(4-methylpiperazin-1-yl)pyridine-2-carboxylic acid quinolin-8-ylamide trifluoroacetate salt] | 18 nM |  | 19 nM | CC50 ([3]; trifluoroacetate salt): 2900 nM |
| O=C(Nc1cccc2cccnc12)c1cc2ccccc2cn1 [Compound 28] |  |  |  | CC50 [1]: 480 nM; CC50 [3]: > 10000 nM; CC50 [2]: 610 nM |
